Source: PubChem BioAssay (NCI)
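Following 48 hours of exposure in 96-well plates, responses at five concentrations were used to interpolate endpoints linearly. The concentration for 50% growth inhibition is given as GI50. At the TGI there is no net growth.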

What was measured:
Test in all cases: NCI-60 cell line screen, 48 h
[1] = test system: DMS 273 small cell lung
[2] = test system: DMS 114 small cell lung
[3] = test system: HOP-18 NSCLC
[4] = test system: LXFL 529 NSCLC
[5] = test system: T-47D breast
[6] = test system: DU-145 prostate
[7] = test system: HS 578T breast
[8] = test system: MDA-N

SMILES | TGI [5] | TGI [6] | TGI [7] | GI50 [6] | GI50 [7] | GI50 [5] | also measured
CCOC(=O)/C(O)=C(/c1n[nH]c(=O)c2ccccc12)[N+](=O)[O-] |  |  |  |  |  |  | TGI [1]: > 100 µM; TGI [2]: > 100 µM; TGI [3]: > 100 µM; TGI [4]: > 100 µM
CCOC(=O)C12CCCC1(O)N(NC(=O)c1ccccc1)C(C)=C2C(=O)OC (stereo not given) |  |  |  |  |  |  | TGI [1]: > 100 µM; TGI [3]: > 100 µM; TGI [4]: > 100 µM
CC(=O)[CH-]C(=O)c1ccccc1.CC(=O)[CH-]C(=O)c1ccccc1.CC[O-].CC[O-].[Zr+4] |  |  |  |  |  |  | GI50 [3]: > 100 µM; TGI [3]: > 100 µM; GI50 [4]: > 100 µM; TGI [4]: > 100 µM
Nc1nc(N)c(N=O)c(Nc2ccc(O)cc2)n1 | > 96.1 µM | > 100 µM | 58.8 µM |  |  |  | TGI [8]: > 100 µM
C=C1C(=O)O[C@H]2[C@H]1CC/C(COC(=O)CCCCC(=O)OC/C1=C/CC[C@@]3(C)O[C@H]3[C@H]3OC(=O)C(=C)[C@@H]3CC1)=C\CC[C@@]1(C)O[C@@H]21 |  | > 100 µM | 8.46 µM | 3.09 µM | 1.97 µM |  | 
COc1ccc(N(CC(=O)NCCC[Te]c2ccccc2)C(=O)c2ccccc2)cc1 | 21.6 µM | 13.9 µM | 8.41 µM | 3.9 µM | 2.97 µM | 3.4 µM | 
CC(=O)OC(/C=C1/C=CC(=O)O1)COC(=O)c1ccccc1 (stereo not given) |  |  |  |  |  |  | TGI [1]: > 31.2 µM; TGI [2]: > 31.2 µM; TGI [3]: > 31.2 µM; TGI [4]: > 31.2 µM
O=C1NN(c2ccc(C(=O)O)cc2)C(=O)/C1=C\c1ccc([N+](=O)[O-])o1 | 50 µM | > 100 µM | > 100 µM | 85.6 µM | > 100 µM | 21.4 µM | 
Oc1ccc2cc(Br)ccc2c1-c1c(O)ccc2cc(Br)ccc12 | 17.3 µM | 9.34 µM | 23.3 µM | 3.29 µM | 3.7 µM | 4.61 µM | 
COc1cc(/C=C2/C(=O)N(C(=O)OC(C)C)C(Cc3cc(OC)c(OC)c(C)c3OC)C(=O)N2Cc2ccccc2)c(OC)c(C)c1OC (stereo not given) |  |  |  |  |  |  | TGI [1]: > 100 µM; TGI [2]: > 100 µM; TGI [3]: > 100 µM; TGI [4]: > 100 µM
COc1ccccc1OCC(=O)Nc1sc2c(c1C(N)=O)CCC2 | > 100 µM | > 100 µM | > 100 µM | > 100 µM | > 100 µM | > 100 µM | 
COc1cc2c3c(n(CCCCOC(=O)C(F)(F)F)c(=O)c2cc1OC)-c1cc2c(cc1C3=O)OCO2 | > 100 µM | > 100 µM | > 100 µM | > 80 µM | > 93.1 µM | > 100 µM | 
Cc1nn(-c2nc3ccccc3s2)c(C)c1Oc1ccccc1O | 34.4 µM | 20.1 µM | 25.2 µM | 7.17 µM | 10.3 µM | 8.63 µM | 
CC1=CC(=NC(=O)CBr)C=C/C1=N\S(=O)(=O)c1ccccc1 | 5.04 µM | 12.2 µM | 35.2 µM | 3.63 µM | 5.03 µM | 2.1 µM | 
CCC[CH2][Sn]1([CH2]CCC)[O]C(=O)c2cc(I)cc(I)c2[O]1 |  |  |  |  |  |  | GI50 [1]: 1.28 µM; TGI [1]: 2.82 µM; GI50 [2]: 0.303 µM; TGI [2]: 1.19 µM; GI50 [3]: 1.62 µM; TGI [3]: 3.03 µM; GI50 [4]: 0.247 µM; TGI [4]: 1.33 µM
CCOc1c(Br)cc(C2C(C(=O)OC)=CN(C)C=C2C(=O)OC)cc1OC | > 100 µM | > 100 µM | > 100 µM | > 100 µM | 50.4 µM | 45.9 µM | 
COc1cc2nc3sc(C(=O)Nc4ccc(C(=O)OC(C)C)cc4)c(C(=O)Nc4ccc(Cl)cc4C)n3c(=O)c2cc1OC | 54.6 µM | 11.4 µM | 7.7 µM | 1.25 µM | 1.6 µM | 5.59 µM | 
C[n+]1c(/C=C\c2ccc(Cl)cc2)ccc2ccccc21 | > 100 µM | > 100 µM | > 100 µM | 89.8 µM | 27.4 µM | 21.8 µM | 
O=S(=O)(/C=C/c1ccc(Cl)cc1Cl)Cc1ccccc1CS(=O)(=O)/C=C/c1ccc(Cl)cc1Cl |  |  |  |  |  |  | TGI [1]: > 100 µM; TGI [2]: > 100 µM; TGI [4]: > 100 µM
Cc1cc2c(cc1Cl)SC1=CC(=O)N(c3ccccc3)C1=NS2(=O)=O | 65.1 µM | > 100 µM |  | 59.4 µM |  | 13 µM | 
Cn1cncc1[C@@](N)(c1ccc(Cl)cc1)c1ccc2c(c1)c(-c1cccc(Cl)c1)cc(=O)n2C | 17.2 µM | 3.66 µM | 15.5 µM | 1.81 µM | 2.77 µM | 2.57 µM | 
CC(C)=CCC[C@H](C)[C@@H]1CC[C@]2(C)C3CC[C@]4(OC4(C)C)C(CCCO)[C@]3(C)CC[C@@]12C (stereo not given in full) | 45.6 µM | > 100 µM | 58.5 µM | 32.9 µM | 24.4 µM | 17.4 µM | 
Oc1ccccc1-c1nn(CNc2cccc(Cl)c2)c(=S)o1 | > 100 µM |  | > 100 µM |  | 69.1 µM | 28.7 µM | 
Cn1cc(C2=C(c3cccc4ccccc34)C(=O)NC2=O)c2ccccc21 | 24.5 µM | > 25 µM | > 24 µM | 12.3 µM | 6.69 µM | 6.32 µM | 
Cc1[nH]c2ccccc2c1C1Cc2ccccc2N1C(=O)/C=C/C=C/c1ccccc1 (stereo not given) |  |  |  |  |  |  | TGI [1]: > 100 µM; TGI [2]: > 100 µM; TGI [4]: > 100 µM
CCOc1cccc(/C=N/NC(=O)c2ccc(Nc3ccnc(C(F)(F)F)c3)cc2)c1O | 19.4 µM | > 100 µM | > 100 µM | 2.46 µM | 6.31 µM | 0.984 µM | 
COc1ccc2nc(-c3cc(-c4cc(OC)c(OC)c(OC)c4)n[nH]3)[nH]c2c1 | 1.92 µM | 8.28 µM | 23.2 µM | 2.29 µM | 2.89 µM | 0.346 µM | 
CC[C@@H](C(=O)[C@@H](C)[C@@H](O)[C@H](C)[C@@H]1O[C@@H]([C@@H](CC)C(=O)O)CC[C@@H]1C)C1O[C@]2(C=CC(=O)[C@]3(CC[C@@](C)([C@H]4CC[C@](O)(CC)[C@H](C)O4)O3)O2)[C@H](C)C[C@@H]1C (stereo not given in full) | 17.3 µM | 18 µM | 14.9 µM | 1.43 µM | 0.183 µM | 0.0596 µM | 
